Test [1] concerns the target T1, Ephrin type-B receptor 1 (Homo sapiens) (UniProt P54762).
T1 sequence (whole entry): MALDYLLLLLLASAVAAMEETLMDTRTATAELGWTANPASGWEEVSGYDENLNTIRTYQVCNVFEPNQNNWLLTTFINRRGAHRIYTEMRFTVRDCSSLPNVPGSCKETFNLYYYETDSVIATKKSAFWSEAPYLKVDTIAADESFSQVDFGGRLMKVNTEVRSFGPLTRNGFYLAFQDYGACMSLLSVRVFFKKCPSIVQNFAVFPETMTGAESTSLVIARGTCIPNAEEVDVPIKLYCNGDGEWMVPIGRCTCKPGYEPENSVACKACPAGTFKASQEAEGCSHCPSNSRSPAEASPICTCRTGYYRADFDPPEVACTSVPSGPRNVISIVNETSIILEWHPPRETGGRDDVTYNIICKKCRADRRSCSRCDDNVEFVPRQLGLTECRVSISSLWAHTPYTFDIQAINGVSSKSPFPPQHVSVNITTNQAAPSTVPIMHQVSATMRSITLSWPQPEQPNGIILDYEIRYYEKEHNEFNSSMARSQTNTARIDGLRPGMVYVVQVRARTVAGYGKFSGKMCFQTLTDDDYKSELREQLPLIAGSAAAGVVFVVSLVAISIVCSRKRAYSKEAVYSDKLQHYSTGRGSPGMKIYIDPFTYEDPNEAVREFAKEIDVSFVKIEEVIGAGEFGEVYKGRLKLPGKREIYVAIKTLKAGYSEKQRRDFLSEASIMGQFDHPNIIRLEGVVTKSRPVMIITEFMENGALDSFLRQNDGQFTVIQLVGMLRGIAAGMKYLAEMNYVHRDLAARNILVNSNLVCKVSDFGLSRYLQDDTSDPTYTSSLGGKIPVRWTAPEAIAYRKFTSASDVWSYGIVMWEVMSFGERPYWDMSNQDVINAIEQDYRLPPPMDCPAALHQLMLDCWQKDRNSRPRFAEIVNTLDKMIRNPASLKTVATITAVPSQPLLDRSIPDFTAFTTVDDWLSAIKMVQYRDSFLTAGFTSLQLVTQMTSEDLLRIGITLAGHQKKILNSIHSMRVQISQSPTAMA
As to the kind of experiment: Selectivity interaction (Kinase panel (Z-LYTE Assay)) EUB0001632a EPHB1. The settings on record: at 10 µM.

The target in test [2] is Mitogen-activated protein kinase 7 (Homo sapiens) (UniProt Q13164). As to the kind of experiment: Selectivity interaction (Kinase panel (Z-LYTE Assay)) EUB0001632a MAPK7. To be noted: at 10 µM.
Mitogen-activated protein kinase 7 (Homo sapiens), sequence (Q13164 2-816 limits assumed): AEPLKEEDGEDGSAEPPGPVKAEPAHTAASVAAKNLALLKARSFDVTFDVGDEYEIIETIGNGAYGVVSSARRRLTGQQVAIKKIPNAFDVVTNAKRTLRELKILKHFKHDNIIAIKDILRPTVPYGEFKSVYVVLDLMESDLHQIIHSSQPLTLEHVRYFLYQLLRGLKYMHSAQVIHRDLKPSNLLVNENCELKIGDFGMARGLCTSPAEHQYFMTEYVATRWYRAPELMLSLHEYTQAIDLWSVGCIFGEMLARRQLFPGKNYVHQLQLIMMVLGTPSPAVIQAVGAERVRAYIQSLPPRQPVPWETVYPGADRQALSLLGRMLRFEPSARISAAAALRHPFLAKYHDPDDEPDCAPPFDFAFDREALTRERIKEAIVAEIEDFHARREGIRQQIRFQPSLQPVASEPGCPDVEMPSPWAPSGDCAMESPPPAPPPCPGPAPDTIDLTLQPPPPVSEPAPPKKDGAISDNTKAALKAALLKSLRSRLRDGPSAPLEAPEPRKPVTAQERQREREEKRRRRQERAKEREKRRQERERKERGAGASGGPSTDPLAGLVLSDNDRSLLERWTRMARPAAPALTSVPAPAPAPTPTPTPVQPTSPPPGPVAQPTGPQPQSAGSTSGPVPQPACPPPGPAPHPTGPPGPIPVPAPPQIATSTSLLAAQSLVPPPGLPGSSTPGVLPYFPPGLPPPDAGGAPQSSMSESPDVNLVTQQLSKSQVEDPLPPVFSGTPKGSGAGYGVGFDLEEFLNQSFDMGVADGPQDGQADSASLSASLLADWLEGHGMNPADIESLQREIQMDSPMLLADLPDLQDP
Test [3] deals with Insulin receptor-related protein (Homo sapiens) (UniProt P14616). Put plainly: Selectivity interaction (KinomeScan (DiscoverX)) EUB0000695a INSRR. The settings on record: at 100 nM.
Insulin receptor-related protein (Homo sapiens), sequence (P14616 27-742 limits assumed): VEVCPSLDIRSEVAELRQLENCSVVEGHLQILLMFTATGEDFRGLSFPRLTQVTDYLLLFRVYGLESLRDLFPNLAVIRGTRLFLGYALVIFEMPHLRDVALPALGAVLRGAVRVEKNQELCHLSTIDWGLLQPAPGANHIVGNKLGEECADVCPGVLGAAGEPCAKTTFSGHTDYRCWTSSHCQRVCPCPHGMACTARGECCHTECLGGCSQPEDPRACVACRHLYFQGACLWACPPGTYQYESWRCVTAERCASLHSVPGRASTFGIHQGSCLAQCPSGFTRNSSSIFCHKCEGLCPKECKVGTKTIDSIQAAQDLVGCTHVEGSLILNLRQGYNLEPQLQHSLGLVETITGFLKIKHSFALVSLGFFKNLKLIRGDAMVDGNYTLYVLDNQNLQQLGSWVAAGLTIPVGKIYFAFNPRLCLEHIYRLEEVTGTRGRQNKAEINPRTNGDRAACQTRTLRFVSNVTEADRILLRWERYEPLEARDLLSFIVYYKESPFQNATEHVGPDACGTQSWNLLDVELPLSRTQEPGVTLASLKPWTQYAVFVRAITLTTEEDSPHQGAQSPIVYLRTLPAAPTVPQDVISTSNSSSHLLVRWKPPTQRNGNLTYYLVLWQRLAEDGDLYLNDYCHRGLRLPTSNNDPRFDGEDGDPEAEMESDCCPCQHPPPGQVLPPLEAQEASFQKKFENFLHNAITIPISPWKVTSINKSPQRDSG
Insulin receptor-related protein (Homo sapiens), sequence (P14616 747-1297 limits assumed): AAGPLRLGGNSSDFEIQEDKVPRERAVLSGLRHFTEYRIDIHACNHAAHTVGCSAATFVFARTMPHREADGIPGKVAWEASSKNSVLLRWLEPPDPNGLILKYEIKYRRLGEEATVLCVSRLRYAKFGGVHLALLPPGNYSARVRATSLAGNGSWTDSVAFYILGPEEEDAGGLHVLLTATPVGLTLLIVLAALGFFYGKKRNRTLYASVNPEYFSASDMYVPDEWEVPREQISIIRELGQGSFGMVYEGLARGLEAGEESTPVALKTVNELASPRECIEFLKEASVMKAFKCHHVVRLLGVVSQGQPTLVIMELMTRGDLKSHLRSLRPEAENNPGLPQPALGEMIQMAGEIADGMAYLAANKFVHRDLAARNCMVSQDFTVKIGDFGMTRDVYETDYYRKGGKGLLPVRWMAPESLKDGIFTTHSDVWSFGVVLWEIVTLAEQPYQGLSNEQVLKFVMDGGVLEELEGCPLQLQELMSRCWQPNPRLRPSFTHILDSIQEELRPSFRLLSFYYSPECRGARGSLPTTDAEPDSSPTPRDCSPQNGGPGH
Test [4] has as its target Activin receptor type-2B (Homo sapiens) (UniProt Q13705). Put plainly: Selectivity interaction (Kinase panel (Invitrogen)) EUB0000639a ACVR2B. To be noted: at 200 nM.
For test [5], the target named is T2, Inhibitor of nuclear factor kappa-B kinase subunit beta (Homo sapiens) (UniProt O14920).
T2 sequence (whole entry): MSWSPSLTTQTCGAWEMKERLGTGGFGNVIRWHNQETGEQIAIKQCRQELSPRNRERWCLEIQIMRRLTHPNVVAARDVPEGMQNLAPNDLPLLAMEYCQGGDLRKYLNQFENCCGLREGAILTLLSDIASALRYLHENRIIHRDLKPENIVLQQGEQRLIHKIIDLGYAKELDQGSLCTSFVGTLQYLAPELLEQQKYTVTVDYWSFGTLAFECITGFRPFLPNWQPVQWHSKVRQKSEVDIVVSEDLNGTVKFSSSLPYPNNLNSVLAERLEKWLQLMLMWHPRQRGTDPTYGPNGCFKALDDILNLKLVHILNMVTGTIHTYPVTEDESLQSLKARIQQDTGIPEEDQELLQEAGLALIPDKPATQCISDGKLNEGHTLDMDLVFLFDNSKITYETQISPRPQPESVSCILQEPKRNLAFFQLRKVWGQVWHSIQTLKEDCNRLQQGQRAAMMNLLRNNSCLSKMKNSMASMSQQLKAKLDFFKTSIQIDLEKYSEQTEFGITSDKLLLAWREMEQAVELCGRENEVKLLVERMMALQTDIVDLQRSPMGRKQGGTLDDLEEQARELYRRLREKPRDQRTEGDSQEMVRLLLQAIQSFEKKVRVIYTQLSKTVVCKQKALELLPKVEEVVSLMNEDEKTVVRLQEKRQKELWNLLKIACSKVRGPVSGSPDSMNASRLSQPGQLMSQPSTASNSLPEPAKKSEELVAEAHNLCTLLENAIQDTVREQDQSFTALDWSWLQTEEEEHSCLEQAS
Put plainly: Selectivity interaction (ActivX KiNativ screen (kinase selectivity in THP-1 cell lysates)) EUB0000639a IKBKB. The format is subcellular. The settings on record: lysate, at 0.01 µM.

Test [6] deals with Cyclin-dependent kinase 16 (Homo sapiens) (UniProt Q00536). Put plainly: Selectivity interaction (ActivX KiNativ screen (kinase selectivity in THP-1 cell lysates)) EUB0000639a CDK16. It is filed as subcellular. The settings on record: lysate, at 1 µM.
Cyclin-dependent kinase 16 (Homo sapiens), sequence (Q00536 whole entry): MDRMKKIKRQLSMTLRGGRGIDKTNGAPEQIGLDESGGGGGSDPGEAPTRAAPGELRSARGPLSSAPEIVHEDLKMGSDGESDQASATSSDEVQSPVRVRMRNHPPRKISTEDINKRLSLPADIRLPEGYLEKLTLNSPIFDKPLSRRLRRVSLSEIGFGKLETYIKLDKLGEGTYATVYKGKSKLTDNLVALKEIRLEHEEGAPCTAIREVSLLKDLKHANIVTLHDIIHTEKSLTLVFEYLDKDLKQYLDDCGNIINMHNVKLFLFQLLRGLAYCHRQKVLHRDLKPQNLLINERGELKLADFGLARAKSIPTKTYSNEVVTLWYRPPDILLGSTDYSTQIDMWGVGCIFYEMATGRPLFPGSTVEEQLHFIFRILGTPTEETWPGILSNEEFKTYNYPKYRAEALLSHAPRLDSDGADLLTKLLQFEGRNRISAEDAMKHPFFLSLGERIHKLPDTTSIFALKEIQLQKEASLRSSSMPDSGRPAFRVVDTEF
The target of test [7] is Serine/threonine-protein kinase SBK1 (Homo sapiens) (UniProt Q52WX2). As to the kind of experiment: Selectivity interaction (KinomeScan (DiscoverX)) EUB0000045b SBK1. The settings on record: at 1 µM.
Test [8] concerns the target T3, Dual specificity mitogen-activated protein kinase kinase 4 (Homo sapiens) (UniProt P45985).
T3 sequence (whole entry): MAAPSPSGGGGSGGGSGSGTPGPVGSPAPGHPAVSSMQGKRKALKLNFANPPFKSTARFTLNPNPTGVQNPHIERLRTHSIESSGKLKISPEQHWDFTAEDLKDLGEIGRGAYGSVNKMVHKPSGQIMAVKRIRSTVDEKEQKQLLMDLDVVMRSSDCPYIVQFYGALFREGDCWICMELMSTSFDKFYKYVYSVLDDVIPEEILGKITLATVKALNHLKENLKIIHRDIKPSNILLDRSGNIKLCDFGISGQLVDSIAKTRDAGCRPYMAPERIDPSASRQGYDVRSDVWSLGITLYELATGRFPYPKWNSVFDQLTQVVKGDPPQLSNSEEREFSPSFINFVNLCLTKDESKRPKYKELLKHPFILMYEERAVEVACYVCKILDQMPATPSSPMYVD
Put plainly: Selectivity interaction (Upstate Kinase Profiler service (Millipore)) EUB0000056c MAP2K4. To be noted: at 1 µM.

Test [9] addresses Calcium/calmodulin-dependent protein kinase type 1D (Homo sapiens) (UniProt Q8IU85). Put plainly: Selectivity interaction (KinomeScan (DiscoverX)) EUB0000092b CAMK1D. To be noted: at 10 µM.
Test [10] has as its target Bromodomain adjacent to zinc finger domain protein 1A (Homo sapiens) (UniProt Q9NRL2). Put plainly: Selectivity interaction (Human bromodomain panel (DSF assay)) EUB0000233b BAZ1A. For orientation: Differential scanning fluorimetry follows unfolding on heating by fluorescence.

Some results are limits rather than exact numbers.

Bromodomain adjacent to zinc finger domain protein 1A (Homo sapiens), sequence (Q9NRL2 whole entry, the tested form may be a part): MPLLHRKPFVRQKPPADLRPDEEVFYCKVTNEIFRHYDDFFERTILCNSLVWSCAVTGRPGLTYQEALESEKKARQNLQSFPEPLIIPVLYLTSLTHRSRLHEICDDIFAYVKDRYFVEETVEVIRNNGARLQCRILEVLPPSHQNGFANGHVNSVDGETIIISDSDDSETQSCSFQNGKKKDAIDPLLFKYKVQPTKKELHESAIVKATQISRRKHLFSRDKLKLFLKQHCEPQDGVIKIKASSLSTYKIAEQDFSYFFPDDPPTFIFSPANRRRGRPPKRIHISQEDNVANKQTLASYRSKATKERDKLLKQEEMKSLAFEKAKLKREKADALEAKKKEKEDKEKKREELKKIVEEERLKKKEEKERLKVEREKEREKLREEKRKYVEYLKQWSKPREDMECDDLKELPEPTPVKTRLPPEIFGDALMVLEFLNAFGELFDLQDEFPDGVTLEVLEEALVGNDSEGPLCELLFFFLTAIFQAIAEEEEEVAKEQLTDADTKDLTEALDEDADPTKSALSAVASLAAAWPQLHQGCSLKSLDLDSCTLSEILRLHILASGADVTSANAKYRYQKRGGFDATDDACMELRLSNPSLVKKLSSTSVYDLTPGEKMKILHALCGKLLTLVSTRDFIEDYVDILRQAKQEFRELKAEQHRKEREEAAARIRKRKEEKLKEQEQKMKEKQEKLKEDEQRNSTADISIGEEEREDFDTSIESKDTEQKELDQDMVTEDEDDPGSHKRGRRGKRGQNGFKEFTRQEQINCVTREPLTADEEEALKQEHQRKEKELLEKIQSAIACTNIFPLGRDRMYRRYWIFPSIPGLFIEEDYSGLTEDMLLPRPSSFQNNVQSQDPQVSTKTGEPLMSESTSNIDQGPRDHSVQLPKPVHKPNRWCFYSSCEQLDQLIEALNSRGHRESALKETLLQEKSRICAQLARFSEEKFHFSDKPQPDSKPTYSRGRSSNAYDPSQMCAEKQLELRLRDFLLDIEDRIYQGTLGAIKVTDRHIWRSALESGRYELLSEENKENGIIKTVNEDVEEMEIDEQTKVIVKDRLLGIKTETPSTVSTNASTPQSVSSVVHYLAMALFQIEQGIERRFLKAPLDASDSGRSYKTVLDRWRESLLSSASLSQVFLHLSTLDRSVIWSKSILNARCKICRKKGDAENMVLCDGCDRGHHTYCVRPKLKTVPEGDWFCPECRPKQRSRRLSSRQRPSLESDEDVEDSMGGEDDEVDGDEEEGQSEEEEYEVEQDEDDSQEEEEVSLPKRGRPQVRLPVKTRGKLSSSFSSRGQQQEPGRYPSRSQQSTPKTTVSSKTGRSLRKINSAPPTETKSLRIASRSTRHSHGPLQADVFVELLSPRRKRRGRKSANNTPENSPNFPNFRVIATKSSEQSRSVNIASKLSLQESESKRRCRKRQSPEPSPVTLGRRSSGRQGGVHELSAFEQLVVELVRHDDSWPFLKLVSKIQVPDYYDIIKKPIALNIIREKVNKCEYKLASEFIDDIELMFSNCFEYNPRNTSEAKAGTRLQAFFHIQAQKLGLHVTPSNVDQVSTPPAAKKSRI
Calcium/calmodulin-dependent protein kinase type 1D (Homo sapiens), sequence (Q8IU85 whole entry, looked up, the tested form may be a part): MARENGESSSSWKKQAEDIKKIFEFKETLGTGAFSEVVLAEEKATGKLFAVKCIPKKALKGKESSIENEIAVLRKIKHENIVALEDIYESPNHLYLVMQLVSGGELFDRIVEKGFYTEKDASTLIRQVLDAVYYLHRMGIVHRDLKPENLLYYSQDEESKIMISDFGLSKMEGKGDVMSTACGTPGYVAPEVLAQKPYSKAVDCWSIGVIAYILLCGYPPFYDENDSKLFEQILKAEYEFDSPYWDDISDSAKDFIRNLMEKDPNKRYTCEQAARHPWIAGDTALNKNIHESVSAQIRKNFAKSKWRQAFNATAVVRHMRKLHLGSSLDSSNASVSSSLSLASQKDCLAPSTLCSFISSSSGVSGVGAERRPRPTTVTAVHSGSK
Activin receptor type-2B (Homo sapiens), sequence (Q13705 whole entry): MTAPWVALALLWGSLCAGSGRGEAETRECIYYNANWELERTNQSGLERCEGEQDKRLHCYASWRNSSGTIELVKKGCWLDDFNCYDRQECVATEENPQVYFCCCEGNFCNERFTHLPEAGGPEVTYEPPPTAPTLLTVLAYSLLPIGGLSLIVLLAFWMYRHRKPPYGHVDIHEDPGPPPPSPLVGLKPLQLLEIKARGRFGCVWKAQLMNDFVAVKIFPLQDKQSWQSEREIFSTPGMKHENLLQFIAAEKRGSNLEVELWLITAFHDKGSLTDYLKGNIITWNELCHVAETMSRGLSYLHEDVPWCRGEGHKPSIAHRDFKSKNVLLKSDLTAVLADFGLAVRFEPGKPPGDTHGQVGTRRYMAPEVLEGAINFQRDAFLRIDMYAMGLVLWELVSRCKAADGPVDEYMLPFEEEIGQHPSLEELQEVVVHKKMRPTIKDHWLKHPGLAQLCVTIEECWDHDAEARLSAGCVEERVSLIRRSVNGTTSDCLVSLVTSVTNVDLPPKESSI

Take `Cn1cc(-n2cnc3c(NCc4nc5cc(Cl)c(Cl)cc5[nH]4)nc(N4CCOCC4)nc32)cn1`: the % of control is -4.1% in test [1] and 2.02% in test [2]. For `Cc1cc(F)c(C(=O)Nc2cccc(-c3nncn3C(C)C)n2)cc1-n1cnc(C2CC2)c1`, the % of control in test [3] stood at 88%. As to `CC[C@@H]1[C@H](F)C(=O)N[C@@H]1COc1nccc2cc(C(N)=O)c(OC)cc12` [ZIMLOVISERTIB], the % of inhibition in test [4] was 5.32%; in test [5] it was -4.2%; in test [6] it was 7.7%.

For `C=CC(=O)Nc1cc(-n2c(=O)ccc3cnc4ccc(-c5ccc(NS(C)(=O)=O)cc5)cc4c32)ccc1C`, the % of control in [7] turned out to be 4.6%. Turning to `Cc1ccc(-c2ccc3c(ccc4sc5c(c43)NC[C@@H](C)NC5=O)n2)cn1`, the % of inhibition in [8] stood at 19%. Take `CCC(=O)N1CCN(c2ccc(-n3c(=O)ccc4cnc5ccc(-c6cnc7ccccc7c6)cc5c43)cc2C(F)(F)F)CC1`: in [9], the % of control was determined as 88%.

As to `CN(C)CCCOc1ccc(-c2cc(NCCCn3cccn3)nc(S(C)(=O)=O)n2)cc1`, the dTM in test [10] is less than 2 K.

Source of the values: ChEMBL document CHEMBL5465560, “Selectivity Literature for EUbOPEN Chemogenomic Library” (2024).
